In patent US7176219B2, “Salts of quinuclidine derivative” (priority 2005, dated 2007):

Assays:
[1] = Evaluation of hygroscopicity (dynamic steam adsorption, weight change); type: physicochemical; conditions: for Deliquescence during water absorption measurement: 5–95% relative humidity; for Weight Change (%): within the range 5–95% relative humidity
Experimental: A sample (about 5 mg) was placed in a purpose-made quartz holder, and the sample weight at the respective humidity was continuously measured and recorded in the following conditions. The apparatus including data processing was operated according to the method and procedure directed in each device. (Apparatus: dynamic steam adsorption measuring apparatus DVS Advantage, made by SMS)

[2] = Evaluation of stability (1): forced degradation test, impurities by LC; conditions: for Change from Impurity Amt. before Storage (%), Condition 3 / Change from Impurity Amt. before Storage (%), Condition 2: 25° C., 5 days; for Change from Impurity Amt. before Storage (%), Condition 3: NUV (near ultraviolet ray) irradiated; for Change from Impurity Amt. before Storage (%), Condition 3 / Change from Impurity Amt. before Storage (%), Condition 1: tightly closed; for Change from Impurity Amt. before Storage (%), Condition 2: relative humidity 93%, open; for Change from Impurity Amt. before Storage (%), Condition 1: 120° C., 24 hours
Experimental: A sample after storage was dissolved in 1 mL of MeOH and used as a sample solution. The sample solution was diluted 100 times with MeOH and used as a standard solution. Impurities contained in the sample solution was quantitatively analyzed using the standard solution. In this determination, the apparatus including data processing was operated according to the method and procedure directed in each device. (Apparatus: LC-MSD 1100 series, made by Agilent)

[3] = Evaluation of stability (2): stress testing, impurities by LC, UV at 210 nm; type: physicochemical
Experimental: A sample (about 5 mg) was weighed in a glass mess-flask of 10 mL and applied to a stress testing in the following storage conditions. • Condition 1: 5° C.—shading—tightly closed • Condition 2: 40° C.—relative humidity 75%—open • Condition 3: 60° C.—shading—tightly closed • Condition 4: 80° C.—shading—tightly closed • Condition 5: 25° C.—D65 (1000 lux)—tightly closed
Chemical stability: After storage, MeOH was placed in the mess-flask containing the sample up to the level of the marked line, and the resulting solution was used as a sample solution. The sample solution was diluted 100 times with MeOH to prepare a standard solution, which was used in determination of impurities contained in the sample solution. Detection of the impurities was performed by means of UV at 210 nm. […] (Apparatus: LC-MSD 1100 series, made by Agilent)

[4] = Hygroscopicity and long-term storage of the known hydrochloride (disclosure section); type: physicochemical
muscarinic M3 receptors [5] = molecular target: T1, muscarinic M3 receptors (Cavia porcellus, UniProt H0W1Z3); experiment: Functional affinity estimate for muscarinic M3 receptors in bladders (carbachol-induced intracellular Ca2+ change in bladder smooth muscle cells); type: cell-based, guinea pig
T1 construct: Smooth muscle cells were isolated from guinea pig bladders; from tissue; host or cells: smooth muscle cells freshly isolated from guinea pig bladder
T1 sequence (H0W1Z3 1-590): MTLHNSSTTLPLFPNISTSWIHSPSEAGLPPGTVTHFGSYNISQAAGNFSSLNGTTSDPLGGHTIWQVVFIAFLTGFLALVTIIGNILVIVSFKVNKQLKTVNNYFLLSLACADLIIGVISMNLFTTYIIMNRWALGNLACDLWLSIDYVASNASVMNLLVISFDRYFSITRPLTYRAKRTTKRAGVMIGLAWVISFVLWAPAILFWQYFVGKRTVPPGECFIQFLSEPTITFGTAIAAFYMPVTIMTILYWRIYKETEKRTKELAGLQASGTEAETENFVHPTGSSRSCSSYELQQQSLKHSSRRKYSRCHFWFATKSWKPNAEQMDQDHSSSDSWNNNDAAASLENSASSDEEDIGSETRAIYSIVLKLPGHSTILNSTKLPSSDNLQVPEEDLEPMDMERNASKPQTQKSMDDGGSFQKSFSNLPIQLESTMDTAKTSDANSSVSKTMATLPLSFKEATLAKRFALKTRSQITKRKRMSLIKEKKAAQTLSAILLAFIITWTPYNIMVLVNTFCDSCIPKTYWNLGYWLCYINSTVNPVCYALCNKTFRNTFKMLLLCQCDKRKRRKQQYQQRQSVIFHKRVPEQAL
Experimental: Below, the method is described in brief.
Smooth muscle cells were isolated from guinea pig bladders from which the […] had been removed, loaded with a calcium-sensitive fluorescent dye Fura2 and suspended in phenol red-free Hanks' buffer solution supplemented with 20 mM HEPES (pH 7.4) and 0.1% bovine serum albumin. An aliquot of cell suspension (490 μL) was continuously stirred, kept at 28° C. and monitored for the ratio of fluorescence (500 nm) at 340 nm excitation to that at 380 nm excitation. To each aliquot, 5 μL of test compound and carbachol solutions were serially added with a 2 minute interval, and the peak increase in the ratio over the level just before stimulation was used in data analysis.

[6] = test system: carbachol-evoked bladder contraction; experiment: Inhibitory effects on carbachol-evoked bladder contraction in anesthetized mice; type: in vivo; conditions: anesthetized female mice, i.v., carbachol 10 μg/kg, intravesical pressure
Experimental: The method for determination of inhibitory effects of test compounds on bladder contraction is described as follows.
Female mice, weighing 30 to 35 g, were anesthetized with a sub-lethal dose (75 mg/kg, i.v.) of sodium pentobarbital and placed supine on a heating pad to maintain the body temperature. A polyethylene catheter (PE10) was cannulated to the bladder via the urethra and secured by purse-string suture at the external urethral opening. Another catheter was inserted into the femoral vein for injections of drug solutions at a […]. The bladder catheter was connected to a pressure transducer through a three-way stopcock valve. The bladder was emptied by drainage of urine through the catheter, and then distended with about 100 μL of physiological saline, and the intravesical pressure was measured.
After intravesical pressure stabilization, the muscarinic agonist carbachol (10 μg/kg) was administered repeatedly with an interval of 15 minutes or longer. By this means, bladder contractions occurred in a reproducible manner over 2 hours without deterioration of physical conditions. After three responses to carbachol were obtained, a test compound injection was followed by carbachol administration 10 minutes later and this procedure was repeated with increasing doses of the test compound. In four or five mice per test compound, the percent inhibition of means of prior drug responses was obtained and the dose of test compound required for 50% inhibition (ID50) was estimated by the linear regression analysis. Mice showing rhythmic bladder constriction were not used for the data analysis.

muscarinic M3 receptors [7] = molecular target: muscarinic M3 receptors (Homo sapiens, UniProt P20309); conditions: made public in Patent document 1 (EP 0 801 067); cited from earlier work
muscarinic M3 receptors (Homo sapiens, UniProt P20309), sequence (P20309 whole entry): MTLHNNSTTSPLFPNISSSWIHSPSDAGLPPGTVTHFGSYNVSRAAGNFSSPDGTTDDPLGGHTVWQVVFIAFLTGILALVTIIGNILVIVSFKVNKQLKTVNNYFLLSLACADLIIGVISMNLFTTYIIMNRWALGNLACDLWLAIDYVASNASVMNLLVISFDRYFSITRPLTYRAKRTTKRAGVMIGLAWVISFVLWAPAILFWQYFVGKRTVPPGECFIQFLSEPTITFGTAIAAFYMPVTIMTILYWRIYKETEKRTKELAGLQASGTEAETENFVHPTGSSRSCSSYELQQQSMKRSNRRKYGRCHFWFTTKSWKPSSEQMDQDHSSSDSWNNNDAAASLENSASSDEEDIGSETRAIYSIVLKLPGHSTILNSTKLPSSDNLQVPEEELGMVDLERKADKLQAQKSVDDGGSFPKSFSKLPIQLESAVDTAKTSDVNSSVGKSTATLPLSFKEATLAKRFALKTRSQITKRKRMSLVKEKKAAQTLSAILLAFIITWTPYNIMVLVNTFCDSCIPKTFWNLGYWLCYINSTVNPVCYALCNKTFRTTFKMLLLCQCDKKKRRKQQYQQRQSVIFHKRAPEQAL

[8] = 25° C., listed as Compound A hydrochloride, hydrochloride
[9] = Condition 1: 5° C., shading, tightly closed, 1 month
[10] = Condition 1: 5° C., shading, tightly closed, 2 months
[11] = Condition 1: 5° C., shading, tightly closed, 2 weeks
[12] = Condition 2: 40° C., relative humidity 75%, open, 1 month
[13] = Condition 2: 40° C., relative humidity 75%, open, 2 months
[14] = Condition 2: 40° C., relative humidity 75%, open, 2 weeks
[15] = Condition 3: 60° C., shading, tightly closed, 1 month
[16] = Condition 3: 60° C., shading, tightly closed, 2 months
[17] = Condition 3: 60° C., shading, tightly closed, 2 weeks
[18] = Condition 4: 80° C., shading, tightly closed, 1 month
[19] = Condition 4: 80° C., shading, tightly closed, 2 months
[20] = Condition 4: 80° C., shading, tightly closed, 2 weeks
[21] = Condition 5: 25° C., D65 (1000 lux), tightly closed, 1 month
[22] = Condition 5: 25° C., D65 (1000 lux), tightly closed, 2 months
[23] = Condition 5: 25° C., D65 (1000 lux), tightly closed, 2 weeks

Compound	Change from Impurity Amt. before Storage (%), Condition 3 [2]	Change from Impurity Amt. before Storage (%), Condition 2 [2]	Change from Impurity Amt. before Storage (%), Condition 1 [2]	Impurities before Storage (%) [2]	Impurities (%) [3, 9]	Impurities (%) [3, 10]	Impurities (%) [3, 11]	Impurities (%) [3, 12]	Impurities (%) [3, 13]	Impurities (%) [3, 14]	Impurities (%) [3, 15]	Impurities (%) [3, 16]	Impurities (%) [3, 17]	Impurities (%) [3, 18]	Impurities (%) [3, 19]	Impurities (%) [3, 20]	Impurities (%) [3, 21]	Impurities (%) [3, 22]	Impurities (%) [3, 23]	also measured
Cl.O=C(O[C@H]1CN2CCC1CC2)N1CCc2ccccc2[C@@H]1c1ccccc1 [Reference Example 2, Compound A hydrochloride, reference compound]	2.0%	3.8%	0.2%	0.1%	0.21%	0.18%	0.25%	8.19%	9.20%	8.72%	0.22%	0.24%	0.34%	0.39%	0.47%	0.43%	2.38%	3.68%	1.73%	Deliquescence during water absorption measurement ([1]; 25° C., hydrochloride): deliquescent; Deliquescence during water absorption measurement [1, 8]: accompanied by deliquescence; Relative humidity at which rapid moisture uptake began ([1]; 25° C., FIG. 1): about 65 % relative humidity; Weight Change (%) ([1]; 25° C., hydrochloride): > 35%; Weight Change (%) [1, 8]: exceeded 35%; Weight gain by absorption of moisture ([1]; at 75% or more relative humidity): ≥ 15%; Stability to humidity ([2]; Condition 2 in Test Example 2 and Condition 2 in Test Example 3): not so stable to humidity; Stability to light ([2]; Condition 3 in Test Example 2 and Condition 5 in Test Example 3): not so stable; Increase of impurities during storage ([2]; Table 2 and Table 3): impurities increased during storage; Impurities during long-term storage ([4]; long-term storage): increase of impurities during long-term storage; Hygroscopicity in a conventional environment ([4]; relative humidity of 70% (room temperature)): so hygroscopic as to deliquesce
O=C(O[C@H]1CN2CCC1CC2)N1CCc2ccccc2[C@H]1c1ccccc1 [Example 1, (−)-(3R)-quinuclidin-3-yl(1R)-1-phenyl-1,2,3,4-tetrahydroisoquinoline-2-carboxylate (−)-(2S,3S)-tartrate]	−0.3%	−0.1%	0.2%	1.5%	0.00%	0.00%	0.00%	0.00%	0.00%	0.00%	0.00%	0.00%	0.00%	0.00%	0.00%	0.00%	0.00%	0.00%	0.00%	Weight Change (%) ([1]; 25° C.): <1%; IC50 (muscarinic M3 receptors [5]; IC50 (ng/mL), inhibition of carbachol-induced Ca2+ increase, guinea pig bladder smooth muscle cells, Fura2): 6.62 nM; Ki (muscarinic M3 receptors [5]; Ki (nM), IC50 converted by Cheng-Prusoff equation based on EC50 of carbachol): 0.68 ± 0.21 nM; ID50 (dose required for 50% inhibition of bladder contraction) [6]: 0.079 mg/kg
O=C(O[C@H]1CN2CCC1CC2)N1CCc2ccccc2[C@H]1c1ccccc1 [Compound A, (−)-(3R)-quinuclidin-3-yl(1R)-1-phenyl-1,2,3,4-tetrahydroisoquinoline-2-carboxylate]	–	–	–	–	–	–	–	–	–	–	–	–	–	–	–	–	–	–	–	Affinity and selectivity for muscarinic M3 receptors (muscarinic M3 receptors [7]): displays an affinity and selectivity for muscarinic M3 receptors
